{
  "source": "patent US10207988B2",
  "about": "“Methods and compositions for treatment of cancer and autoimmune disease” (THE JACKSON LABORATORY, priority 2011, dated 2019)",
  "key": {"[1]": {"test_system": "AID+/+ (C57BL/6) or AID−/− mice", "experiment": "systemic DIDS treatment of DNP-KLH immunized mice", "type": "in vivo", "method": "To test the in vivo effectiveness of DIDS, either AID+/+ (C57BL/6) or AID−/− mice (Muramatsu et al. et al., 2000 supra) were administered DIDS (10 mg/kg or 50 mg/kg) at weekly intervals, immunized at weeks 1 with dinitrophenol conjugated Keyhole limpet hemocyanin (DNP-KLH) in complete Freund's adjuvant (CFA) to stimulate lymphocyte activation, and boosted after 4 weeks with DNP-KLH (in incomplete Freund's adjuvant, IFA). After a total of 7 weeks (FIG. 25A) mice were euthanized. The group size was n=5. […] For this the mice were weighed weekly and the data represent the average fractional change in body mass for five animals, and error bars denote S.E.M.\nAfter the 7-week trial window, tissues from treated and control animals were fixed, sectioned, and analyzed after hematoxylin and eosin (H&E) staining. […] To determine whether DIDS induced a B-cell specific phenotype related to AID, bone marrow, spleen, and peripheral blood, from DIDS-treated AID+/+ versus AID−/− mice, were analyzed for the presence of B220+CD19+ B-cells, by flow cytometry (FIG. 26). […] In FIG. 26 the endpoint flow cytometry dot plot analysis of bone marrow, spleen, and peripheral blood from AID−/− and AID+/+ mice immunized with DNP-KLH and treated with 0, 10, or 50 mg/kg DIDS is shown. Plots represent the population of cells in the lymphocyte gate stained for expression of B220 (y-axis) and CD19 (x-axis). The numbers in the upper right corner of each plot provide the percentage of B220+/CD19+ cells for each analysis. The progression of B-cell maturation from early/pre-GC to post-GC is indicated below."}, "[2]": {"test_system": "activated caspase 3 (AC3) in AID+ and AID− primary human CLL cells", "experiment": "activated caspase 3 (AC3) staining in primary human CLL cells treated with DIDS", "type": "cell-based", "settings": "30 μM DIDS, 3 days in culture", "from_the_text": "Primary human CLL patient derived cells were obtained from peripheral bleeds collected at the time of routine clinical monitoring. Primary peripheral blood samples were collected via routine venipuncture into BD Vacutainer CPT Cell Separation Tubes. Samples were centrifuged to separate red blood cells (RBC) and then inverted to resuspend the mononuclear cells in their own plasma. Samples were stored overnight at the site of collection at room temperature then shipped via courier to the site of analysis. Each sample was tested for AID expression status by reverse transcription PCR (RT-PCR) to detect presence of the human AID mRNA (see Example 11). Samples were then divided into AID+ (those showing detectable levels of AID mRNA) and AID− (those showing no detectable AID mRNA above background) groups. Multiple independent cultures from different AID+ and AID− samples were initiated in standard RPMI-1640 medium containing 10% FBS plus either 0 or 30 μM DIDS. After 3 days in culture, cells from were fixed with paraformaldehyde, mounted on microscope coverslips, permeabilized by washing with weak detergent, and processed for immunofluorescent detection of the apoptosis marker activated caspase 3 (AC3) (primary antibody: cat. No. ab13847, Abcam; 1:100 dilution). Nuclear DNA was counterstained with 4′,6-diamidino-2-phenylindole (DAPI). […]"}, "[3]": {"test_system": "phosphor-H2AX foci in AID+ and AID− primary human CLL cells", "experiment": "phospho-H2AX foci in primary human CLL cells treated with DIDS", "type": "cell-based", "settings": "30 μM DIDS, 2 days in culture, AID+ versus AID− samples", "from_the_text": "Primary human CLL patient derived cells were obtained from peripheral bleeds collected at the time of routine clinical monitoring. Primary peripheral blood samples were collected via routine venipuncture into BD Vacutainer CPT Cell Separation Tubes (Becton Dickinson). Samples were centrifuged to separate red blood cells (RBC) and then inverted to resuspend the monocuclear cells in their own plasma. Samples were stored overnight at the site of collection at room temperature then shipped via courier to the site of analysis. Each sample was tested for AID expression status by reverse transcription PCR (RT-PCR) to detect presence of the human AID mRNA (see Example 11). Samples were then divided into AID+ (those showing detectable levels of AID mRNA) and AID− (those showing no detectable AID mRNA above background) groups. Multiple independent cultures from different AID+ and AID− samples were initiated in standard RPMI-1640 medium containing 10% FBS plus either 0 or 30 μM DIDS. After 2 days in culture, cells from each culture/condition were fixed using paraformaldehyde, mounted on microscope coverslips, permeabilized by washing with weak detergent, and were processed for immunofluorescent detection of the DNA double strand break marker phosphor-H2AX (primary antibody: cat. No. A300-081A, Bethyl Laboratories; 1:400 dilution). […]"}},
  "data": [
    {"smiles": "O=S(=O)([O-])c1cc(N=C=S)ccc1/C=C/c1ccc(N=C=S)cc1S(=O)(=O)[O-].[Na+].[Na+]", "note": "[DIDS, 4,4′diisothiocyanostilbene-2,2′-disulfonic acid]", "values": [
      {"measurement": "weight gain (fractional change in body mass)", "setting": "[1]; 0 mg/kg control and 50 mg/kg cohorts, after 5 weeks", "result": "independent of DIDS exposure"},
      {"measurement": "overt signs of toxicity", "setting": "[1]; 10 mg/kg or 50 mg/kg DIDS at weekly intervals, 7 weeks", "result": "No animals in either the control or DIDS-treated groups showed overt signs of toxicity"},
      {"measurement": "overt non-B-cell toxicity", "setting": "[1]; AID+/+ or AID−/− cohort", "result": "none of the DIDS treated animals"},
      {"measurement": "percentages of splenic B-cells (flow cytometry)", "setting": "[1]; AID+/+ or AID−/− mice", "result": "no consistent differences"},
      {"measurement": "toxicity / splenic physiology", "setting": "[1]; at least up to 50 mg/kg, AID+/+ or AID−/− mice", "result": "does not induce significant toxicity or general defects in splenic physiology"},
      {"measurement": "reduction in circulating B-lymphoid cells (flow cytometry)", "setting": "[1]; both 10 mg/kg and 50 mg/kg DIDS, AID+/+ mice", "result": "9-11 fold"},
      {"measurement": "reduction in B220+CD19+ B-cells in the bone marrow (flow cytometry)", "setting": "[1]; both 10 mg/kg and 50 mg/kg treated AID+/+ mice", "result": 25, "unit": "%"},
      {"measurement": "spleen sections, H&E staining", "setting": "[1]; untreated versus DIDS-treated animals, after 7 weeks", "result": "no gross anatomical defects or differences in germinal center (GC) architecture"},
      {"measurement": "fraction of cells showing positive staining for AC3", "setting": "[2]", "result": "higher fraction of AC3-positive cells"},
      {"measurement": "phosphor-H2AX foci per cell (DNA double strand break marker)", "setting": "[3]", "result": "inhibits repair of AID-mediated genomic DNA double strand breaks (DSBs)"}
    ]}
  ]
}
